Publication PMC5111108, “An insecticide resistance-breaking mosquitocide targeting inward rectifier potassium channels in vectors of Zika virus and malaria” (Scientific Reports, 2016)

Legend:
honey bee, A. mellifera = experiment: Acute topical toxicity to adult honey bees; type: in vivo, Apis mellifera; details: 1 mg per bee topical, 48 h
Procedure: Frames of late-stage honey bee (A. mellifera) pupae were taken from four colonies at The Ohio State University Honey Bee Lab in Wooster, OH and maintained in a dark humid incubator at 34 °C (Darwin Chambers Co., St. Louis, MO, model H024) until adult bees emerged. New adults were brushed from frames daily and placed in wooden screen cages (21 × 14 × 12 cm) provisioned with 1:1 (w/w) sucrose in water.
Acute toxicity experiments in adult bees were performed as follows. Twenty-four hours after emergence, adult honey bees in cages were anaesthetized with carbon dioxide, divided into groups of approximately 20 bees and placed in plastic-coated paper cups (177 cm^3; UNIQ Paper Yogurt Cup, Frozen Dessert Supplies, Gilbert, AZ) covered with cotton cheesecloth. […] As a positive control, some bees were treated with 3 μl of bifenthrin (0.1 μg/μl); negative controls consisted of bees treated with 3 μl of solvent. Applications were made using a 20 μl micropipette (Fisherbrand Finnpipette F2, Fisher Scientific, Pittsburgh, PA) with disposable plastic tips. After treatment, bees were returned to the paper cups and provided with sugar syrup in punctured 1.5 ml microcentrifuge tubes. […] Bees showing no movement on inspection at 48 h after treatment were scored as dead.

Ae. aegypti [1] = experiment: Fecundity (eggs laid) in Ae. aegypti; type: in vivo, Aedes aegypti; details: 3.4 μg/mg mosquito, topical within 1 h after engorgement, 72 h post blood feeding
Procedure: The mosquitoes were returned to rearing conditions for 24 h after which they were transferred to individual egg laying tubes consisting of a glass tube 21 × 70 mm (Fisher Scientific, Pittsburg, PA) with a piece of coffee filter ([…] USA, Clearwater, FL) cut to fit the bottom of the tube. The filter was wetted with 150 μl of dH2O and the open end of the tube was plugged with a cotton ball. The mosquitoes in their individual egg laying tubes were returned to rearing conditions for an additional 48 h, and the number of eggs laid were counted. Any mosquitoes that died during the 72 h period after blood feeding were excluded from the analysis. Thirty female mosquitoes were used per replicate for each treatment group; each treatment was repeated on four separate broods, giving a total number of individuals studied ranging from 87-113 for each treatment group. For both species, the median number of eggs laid per mosquito was compared using a Kruskal-Wallis ANOVA with a Dunn's post-hoc analysis (Prism 6, Graphpad Software).

Kir1.1 = target: T1, Kir1.1 (Rattus norvegicus, UniProt P35560); experiment: Tl+ flux assay, mammalian Kir1.1; type: cell-based; details: read-out: inhibition of Kir1.1
T1 sequence (P35560 1-391): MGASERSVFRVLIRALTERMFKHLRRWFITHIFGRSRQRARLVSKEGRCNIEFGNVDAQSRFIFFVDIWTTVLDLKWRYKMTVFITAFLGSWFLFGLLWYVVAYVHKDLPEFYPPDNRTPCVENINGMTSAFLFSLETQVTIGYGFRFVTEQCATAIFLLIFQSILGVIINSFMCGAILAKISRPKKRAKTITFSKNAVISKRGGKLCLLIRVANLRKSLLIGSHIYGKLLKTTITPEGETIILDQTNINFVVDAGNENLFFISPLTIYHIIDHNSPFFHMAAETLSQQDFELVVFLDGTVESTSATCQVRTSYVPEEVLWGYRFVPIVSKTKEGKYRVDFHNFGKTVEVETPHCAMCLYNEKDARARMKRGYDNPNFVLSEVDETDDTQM

Ae. aegypti [2] = experiment: In vivo diuresis assay in adult female Ae. aegypti (LVP); parameters: species or system Aedes aegypti; details: topical 1.7 μg/mg mosquito 2 h before injection of 900 nL K+-PBS, 1 h
Procedure: The excretory capacity of adult female Ae. aegypti (LVP strain) was measured as described previously. […] The K^+-PBS consisted of the following (in mM): 92.2 NaCl, 47.5 KCl, 10 Na2HPO4 and 2 KH2PO4 (pH 7.5). Each treatment group of 5 mosquitoes was transferred into a separate graduated, packed-cell volume tube (MidSci, St. Louis, MO) and held for 1 h at 28 °C. The volume excreted by the mosquitoes was measured visually via the graduated column at the bottom of the tube. At least 8 replicates (5 mosquitoes per replicate) were performed for each treatment. All mosquitoes were confirmed to be alive at the end of 1 h.

O=C(Cn1nc(C(F)(F)F)c2c1CCCC2)N1CCCc2ccccc21 [VU041, 1-(3,4-dihydroquinolin-1(2H)-yl)-2-(3-(trifluoromethyl)-4,5,6,7-tetrahydro-1H-indazol-1-yl)ethan-1-one]
honey bees alive (honey bee, A. mellifera): 91.3% | median number of eggs laid per mosquito vs control (Ae. aegypti [1]): significantly lower median number of eggs per mosquito | inhibition at 30 µM (Kir1.1): < 10% | diuretic capacity (urine excreted) compared to controls, reduction (Ae. aegypti [2]): ~ 51%
